{"source": "patent US20030077328A1", "about": "“Method and composition for inhibiting post-surgical adhesions” (priority 1995, published 2003)", "origin": "cited, not measured here", "tested_on": "post-traumatic adhesion formation", "conditions": "hamster; 0.1 to 10 mg/kg subcutaneously at 12-hour intervals", "data": [{"smiles": "CC(=O)CCCCn1c(=O)c2c(ncn2C)n(C)c1=O", "note": "[pentoxifylline]", "values": [{"measurement": "protection against post-traumatic adhesion formation", "result": "provide protection against post-traumatic adhesion formation"}]}]}
